Data: patent publication US20030054047A1 (priority 2001, published 2003)
Values after ≈ are worked out from the molar mass of the structure shown.

Key:
[1] = system: Influenza virus A/90-15; test: microbe, parasite or virus in culture; assay type: cell-based, Influenza virus type A (H3N2) strain Jifeng A/90-15
[2] = system: Influenza virus B/97-13; test: microbe, parasite or virus in culture; assay type: cell-based, Influenza virus type B strain Jifeng B/97-13
[3] = system: Influenza virus A/90-15; test: Preventive assay: MDCK cells pre-treated 24 hours, then infected, influenza A; assay type: cell-based, Influenza virus type A (H3N2) strain Jifeng A/90-15; settings: drug added 24 hours before infection
Experimental: (§1) Preventive assay: Cell culture plate pre-treated with different concentrations of sample solutions for 24 hours, washed out the drugs, then infected with viruses, incubated, washed, observed and calculated the inhibition % as above.

[4] = system: Influenza virus B/97-13; test: Preventive assay: MDCK cells pre-treated 24 hours, then infected, influenza B; assay type: cell-based, Influenza virus type B strain Jifeng B/97-13; settings: drug added 24 hours before infection
Experimental: as §1

NC(=O)c1ncn([C@@H]2O[C@H](CO)[C@@H](O)[C@H]2O)n1 [Ribavirin, 1-β-D-ribafuranosyl-1,2,4-triazole-3-carboxamide]
Inhibition of virus CPE (in words) [1]: effective
IC50 ([1]; unidentified influenza virus, MDCK, read-out: Influenza virus A/90-15 IC50): 70 ± 40 µg/mL (≈ 287 µM)
Inhibition of virus CPE (in words) [2]: effective
IC50 ([2]; unidentified influenza virus, MDCK, read-out: Influenza virus B/97-13 IC50): 60 ± 30 µg/mL (≈ 246 µM)
Activity on pretreatment for 24 hours (in words) [3]: effective
Activity on pretreatment for 24 hours (in words) [4]: effective
